“Also recorded” adds a separate entry of the source.
Columns and labels:
[1] = tested on: Salmonella enterica subsp. enterica (ATCC 51741); experiment: Microplate assay, inhibition of S. enterica growth in modified TSB (OD600 over 48 h); format: cell-based; details: microtiter plate, 0.025-0.100% in TSB, 37 C
Experimental: FIG. 1 is a chart of the effect of fumaric acid (0%; 0.025%; 0.050%; 0.100%) on the growth of Salmonella enterica ser. Infantis in modified tryptic soy broth (pH 4.93) for 48 hours at 37° C.
Salmonella enterica subsp. enterica (ATCC® 51741™), was obtained from the American Type Culture Collection (ATCC®) and kept as a frozen stock at −70° C. in Bacto™ Tryptic Soy Broth (TSB) with 20% (w/v) glycerol. One vial of the frozen stock culture was thawed at room temperature and 0.100 mL was transferred to 100 mL TSB (pH 7.2) containing (g/l) pancreatic digest of casein: 17, enzymatic digest of soybean meal: 3, sodium chloride, 5, dipotassium phosphate: 2.5, dextrose, 2.5, then incubated at 37° C. for 24 hours on a platform shaker set at 190 rpm. […]
A 0.20% stock solution of fumaric acid was made by dissolving 0.100 g (w/v) fumaric acid in 50 ml sterile deionized water in a flask. […] The pH of each fumaric-TSB solution was measured (Table 1). […] The microplate was placed in a Versamax Microplate Reader (Molecular Devices) (37° C.) with wavelength set to 600 nm. The optical density (OD600) was read every 2 hours for 48 hours.
Solutions of fumaric acid at three different concentrations (Table 3) were evaluated for inhibition of S. enterica growth in vitro using a microplate assay and measuring optical density over time (FIG. 1).

[2] = tested on: cats; experiment: Cat palatability, two-pan method (intake ratio); format: in vivo; details: for IR-A: Ration B incumbent; for IR: vs name brand cat food
[3] = tested on: Salmonella spp.; experiment: Cat palatant solutions (15% w/v) challenged with liquid Salmonella spp. inoculum; format: cell-based, Salmonella enterica
Experimental: In the Phase 3 experiment described below, solutions (15% w/v) of cat palatant samples were challenged with a “Low” concentration (1,000 CFU/ml) and a “High” concentration (1,000,000 CFU/ml) of a liquid Salmonella spp. inoculum in an effort to evaluate the antimicrobial effect of each palatant. Salmonella was enumerated from each palatant at three time points after challenge; immediately, 24 hours and 6 days.
Preparation of palatant samples. Four samples of a cat palatant formulated with varying levels of fumaric acid (Table 6) were aseptically weighed in duplicate sterile 50 ml conical test tubes. To each test tube, 10 ml of sterile deionized water was added and mixed by vortex. The pH of a 5% (w/v) solution of each palatant was also measured (Table 6).
Five Salmonella enterica serovars [S. enterica (ATTC® 51741™), Montevideo (ATCC® 8387™), Typhimurium (ATCC® 14028™), Senftenberg (ATCC® 43845™), Schwarzengrund (4012)] were kept as frozen stocks at −70° C. in Bacto™ Tryptic Soy Broth (TSB) with 20% (w/v) glycerol. One vial of each culture was thawed at room temperature and 0.100 ml was transferred to […] (pH 7.2) containing (g/l) pancreatic digest of casein: 17, enzymatic digest of soybean meal: 3, sodium chloride, 5, dipotassium phosphate: 2.5, dextrose, 2.5, then incubated at 37° C. for 24 hours on a platform shaker set at 190 rpm. One ml of each overnight culture was diluted in 9 ml 0.85% saline and enumerated using a Petroff Hauser Counting Chamber. Each culture was further diluted in 0.85% saline to obtain two concentrations of inoculum; 100,000 CFU/ml (Low) and 100,000,000 CFU/ml (High).
One hundred μl of each Low and High diluted Salmonella inoculum was pipetted into one of each duplicate palatant tubes to obtain one tube with 1,000 CFU/ml (Low) and one tube with […] (High). Samples were analyzed immediately after challenging, 24 hours and 6 days after storage at 25° C.
Each tube of palatant was vortexed prior to serially diluting. Dilutions were pipetted into sterile petri plates. The plates were poured with tempered (45° C.) XLD agar. After solidification, plates were inverted and placed in an incubator (37° C.). Colonies were counted and CFU/ml was calculated. Detection limit of the method was 1 CFU/ml.

For `O=C(O)/C=C/C(=O)O` [Fumaric Acid, fumaric acid], which “inhibition of S. enterica growth in vitro (in words)” value [1] is on record?
Its value is “effective antimicrobial agent”.

What about the IR-A ([2]; Confirmation trials, Prototype 89-87, 0.25% acid on kibble (so in the source)) of the same compound?
The IR-A was 0.65 (p ≤ 0.05).

And the “palatability (in words)” value ([2]; Example 4 cat trials, formula 89-87 or 89-145 vs incumbent dry palatant)?
The value was “parity palatability score; also recorded: scores improved”.

And the IR-A ([2]; First set, Prototype 89-87 at 2.5%, 0.5% total acid on kibble)?
The IR-A was 0.46 (N.S.).

And the IR ([2]; Trial 412 (so in the source), 20% fumaric acid in formula (80 mesh), 0.30% on kibble)?
The IR was 0.77.

What about the IR ([2]; Trial 426, 14% fumaric acid in formula (30 mesh sieve), 0.21% on kibble) of the same compound?
The IR was 0.57.

And the IR ([2]; Trial 465, 14% fumaric acid in formula (80 mesh sieve), 0.21% on kibble)?
The IR was 0.62.

And the IR ([2]; Trial 481, 27% fumaric acid in formula (80 mesh), ~0.41% on kibble)?
The IR was 0.74.

What about the Salmonella counts ([3]; High inoculation (1,000,000 CFU/ml), 14% fumaric, day 0) of the same compound?
Its Salmonella counts is less than 1 CFU/ml.

What about the Salmonella counts ([3]; High inoculation, 14% fumaric, day 1) of the same compound?
Its Salmonella counts is less than 1 CFU/ml.

And the Salmonella counts ([3]; High inoculation, 14% fumaric, day 6)?
Its Salmonella counts is less than 1 CFU/ml.

What about the Salmonella counts ([3]; High inoculation, 20% fumaric, day 0) of the same compound?
Its Salmonella counts is less than 1 CFU/ml.

What about the Salmonella counts ([3]; High inoculation, 20% fumaric, day 1) of the same compound?
Its Salmonella counts is less than 1 CFU/ml.

And the Salmonella counts ([3]; High inoculation, 20% fumaric, day 6)?
The Salmonella counts was less than 1 CFU/ml.

And the Salmonella counts ([3]; High inoculation, 27% fumaric, day 0)?
Its Salmonella counts is less than 1 CFU/ml.

What about the Salmonella counts ([3]; High inoculation, 27% fumaric, day 1) of the same compound?
Its Salmonella counts is less than 1 CFU/ml.

What about the Salmonella counts ([3]; High inoculation, 27% fumaric, day 6) of the same compound?
The Salmonella counts was less than 1 CFU/ml.

And the Salmonella counts ([3]; Low inoculation (1,000 CFU/ml), 14% fumaric in palatant, day 0)?
Its Salmonella counts is less than 1 CFU/ml.

What about the Salmonella counts ([3]; Low inoculation, 14% fumaric, day 1) of the same compound?
The Salmonella counts was less than 1 CFU/ml.

What about the Salmonella counts ([3]; Low inoculation, 14% fumaric, day 6) of the same compound?
The Salmonella counts was less than 1 CFU/ml.

What about the Salmonella counts ([3]; Low inoculation, 20% fumaric, day 0) of the same compound?
The Salmonella counts was less than 1 CFU/ml.

What about the Salmonella counts ([3]; Low inoculation, 20% fumaric, day 1) of the same compound?
The Salmonella counts was less than 1 CFU/ml.

What about the Salmonella counts ([3]; Low inoculation, 20% fumaric, day 6) of the same compound?
Its Salmonella counts is less than 1 CFU/ml.

And the Salmonella counts ([3]; Low inoculation, 27% fumaric, day 0)?
The Salmonella counts was less than 1 CFU/ml.

And the Salmonella counts ([3]; Low inoculation, 27% fumaric, day 1)?
The Salmonella counts was less than 1 CFU/ml.

And the Salmonella counts ([3]; Low inoculation, 27% fumaric, day 6)?
Its Salmonella counts is less than 1 CFU/ml.
